Values of other authors as cited in patent US10874753B2, “Radiopharmaceutical conjugate of a metabolite and an EPR agent, for targeting tumour cells” (The South African Nuclear Energy Corporation Limited, priority 2014, dated 2020).
pKd: −log10 of the molar value.

Experiments:
[1] = binding of Ga by N4O2 chelator
folate receptors (FR) = details: binding to surface folate receptors (FR)

stability constant [1] | pKd (folate receptors (FR)) | Compound
28.1 | – | O=C(O)c1cccc(CNCCNCc2cccc(C(=O)O)n2)n1 [Cyclam H2dedpa, (1,2-bis{[[6-(carboxy)pyridine-2-yl]methyl]-amino}-ethane)]
– | ~9.00 | Nc1nc(=O)c2nc(CNc3ccc(C(=O)N[C@@H](CCC(=O)O)C(=O)O)cc3)cnc2[nH]1 [Folate]
